Data reported in patent US20160000852A1, “NUTRIENT COMBINATIONS FOR AFFECTING AN AGING PROCESS” (BioMarker Pharmaceuticals, Inc., priority 2013, published 2016).

How the values were obtained:
Assay type in all cases: in vivo
D-gal exposed mice [1] = experiment: Spatial memory test with the Morris Water Maze (MWM); conditions: D-gal exposure 125 mg/kg/d, 8 weeks; 12 animals
Description: The Morris Walter Maze (MWM) was applied to measure cognitive deficiencies in D-gal exposed mice. […] In particular, FIG. 1A illustrates the latency time for finding a platform of control subjects, D-gal subjects and subjects administered Formulas A-C over a period of training days. The subjects, in this case, were mice. Values are illustrated as mean ±SEM of 12 animals. […] In addition, FIG. 1B illustrates the latency distance to the platform of control subjects, D-gal subjects and subjects administered Formulas A-C over the same period of training days as illustrated in FIG. 1A.

D-gal exposed mice [2] = experiment: Grip strength test (forelimb); conditions: 12 mice
Protocol: It should further be understood that a decrease in strength is a reliable indicator of the aging process. In this aspect, the rodent grip strength test is a putative measure of muscular strength and has been previously used to screen for neuromuscular function. FIG. 3 illustrates the results of a grip strength test. In particular, grip strength of forelimb was tested. Values are means ±SEM of 12 mice. **P<0.01 versus Normal group, ^##P<0.01 versus D-gal group, ^###P<0.001 versus D-gal group.

[3] = test system: mitochondria of gastrocnemius muscle; experiment: Transmission electron microscopy of gastrocnemius muscle mitochondria; conditions: D-gal exposed mice
Description: To understand the grip strength loss caused by D-gal exposure, the morphology of mice gastrocnemius muscles were further evaluated with transmission electron microscopy. FIGS. 4A-4E illustrate the transmission electron microscopy results of the gastrocnemius muscle. In particular, FIG. 4A illustrates the transmission electron microscopy for the control group of subjects (i.e. mice), FIG. 4B illustrates the transmission electron microscopy for the D-gal group, FIG. 4C illustrates the transmission electron microscopy for the Formula A group, FIG. 4D illustrates the transmission electron microscopy for the Formula B group, FIG. 4E illustrates the transmission electron microscopy for the Formula C group. A magnified view of the upper panels in FIGS. 4A-4E are shown in the lower panels.

[4] = test system: complex I in gastrocnemius mitochondria; experiment: Complex I activity in gastrocnemius mitochondria; conditions: D-gal exposed mice; n=12
Protocol: In view of the abnormal mitochondrial morphology in the skeletal muscle of the D-gal treated mice, the activities of some key enzymes in the electron transport chain (ETC) and the tricarboxylic acid (TCA) cycle were further examined.
(§1) FIG. 7 illustrates the effects of Formulas A-C on the activity of complex I in gastrocnemius and heart mitochondria. Activities of complex I of gastrocnemius (n=12) and heart (n=11) in all groups were assayed. All values are expressed as means ±SEM. **P<0.01 versus Normal group, ^#P<0.05 versus D-gal group, ^##P<0.01 versus D-gal group.

[5] = test system: complex I in heart mitochondria; experiment: Complex I activity in heart mitochondria; conditions: D-gal exposed mice; n=11
Protocol: The activity of complex I was also assayed in several other tissues, such as liver, heart, and brain. FIG. 6 illustrates activities of complex I in mitochondria from multiple tissues. As is illustrated by the results shown in FIG. 6, D-gal administration impairs the activity of complex I in gastrocnemius. Values are means ±SEM of 12 mice in gastroanemius, 11 mice in heart and 12 mice in brain and liver. **P<0.01 versus Normal group.
as §1

D-gal exposed mice [6] = experiment: Coordination test with the Rota-Rod; conditions: 12 animals
Protocol: FIG. 2 illustrates a coordination test with the Rota-Rod. In addition, latency to fall was tested. Values are mean ±SEM of 12 animals.

O=C[C@H](O)[C@@H](O)[C@@H](O)[C@H](O)CO [D-gal, D-galactose]
spatial memory (latency time and latency distance to platform) in MWM (D-gal exposed mice [1]): did not affect the escape latency or swimming distance
grip strength of forelimb (D-gal exposed mice [2]): significantly weaker grip strength
mitochondrial morphology in gastrocnemius muscle [3]: swollen and elongated mitochondria with obvious cristae disruption
complex I activity in gastrocnemius (skeletal muscle) mitochondria [4]: only complex I activity was impaired
complex I activity in heart mitochondria [5]: marginal decrease in heart muscle
motor coordination (latency to fall) in Rota-Rod test (D-gal exposed mice [6]): No difference in latency time
